Activity data for 5 compounds are collected here from ChEMBL document CHEMBL4622908, “Two new secondary metabolites isolated from Avena sativa L. (Oat) seedlings and their effects on osteoblast differentiation” (Bioorg Med Chem Lett, 2020).

The test system of series [1] is C2C12. Put plainly: Induction of osteoblast differentiation in mouse C2C12 cells assessed as increase in ALP expression by ALP staining based assay. Format: functional, cell-based.
For series [2], the system named is C2C12. Put plainly: Cytotoxicity against mouse C2C12 cells assessed as reduction in cell viability at 0.3 to 10 uM by CCK8 assay. It is filed as cell-based. Conditions: c2c12, 10 µM.

The structures appear in SMILES notation.

As for `C[C@@H]1O[C@@H](O[C@H]2[C@H](O[C@H]3CC[C@@]4(C)C(=CC[C@H]5[C@@H]6C[C@@H]7O[C@]8(CC[C@@](C)(CO[C@@H]9O[C@H](CO)[C@@H](O)[C@H](O)[C@H]9O)O8)[C@@H](C)[C@@H]7[C@@]6(C)CC[C@@H]54)C3)O[C@H](CO)[C@@H](O[C@@H]3O[C@H](CO)[C@@H](O)[C@H](O[C@@H]4O[C@H](CO)[C@@H](O)[C@H](O)[C@H]4O)[C@H]3O)[C@@H]2O)[C@H](O)[C@H](O)[C@H]1O`, the results for the Activity entry in the series with C2C12 [1] and in the series on C2C12 [2] were “Dose-dependent effect” and “Non-Toxic”, respectively.

Take `COc1cc(O)c2c(=O)cc(-c3ccc(O)cc3)oc2c1[C@@H]1O[C@H](CO)[C@@H](O)[C@H](O)[C@H]1O[C@@H]1O[C@@H](C)[C@H](O)[C@@H](O)[C@H]1O`: the values for the Activity result with C2C12 [1] and in the series on C2C12 [2] were “Dose-dependent effect” and “Non-Toxic”, respectively.

For the compound `O=c1cc(-c2ccc(O)c(O)c2)oc2cc(O)c([C@@H]3O[C@H](CO[C@@H]4OC[C@@H](O)[C@H](O)[C@H]4O)[C@@H](O)[C@H](O)[C@H]3O)c(O)c12`, the Activity entry is “Dose-dependent effect” in the series with C2C12 [1] and “Non-Toxic” with C2C12 [2].

For the compound `COC1=CC23/C=C/C(=O)OC[C@@H]4O[C@H](O[C@@H]5CC(C(=O)O)=C[C@@H](OC(=O)/C=C/c6cc(OC)c(c2c6)OC3C[C@H]1O)[C@H]5O)[C@@H](O)[C@H](O)[C@H]4O` (stereo not given in full), the Activity result was “Dose-dependent effect” with C2C12 [1] and “Non-Toxic” in the series with C2C12 [2].

With `O=c1cc(-c2ccc(O)cc2)oc2cc(O)c([C@@H]3O[C@H](CO)[C@@H](O)[C@H](O)[C@H]3O[C@@H]3OC[C@H](O)[C@H](O)[C@H]3O)c(O)c12`, the Activity result in the series with C2C12 [1] was “Dose-dependent effect”; in the series on C2C12 [2] it was “Non-Toxic”.
